These results are taken from patent US20060241149A1, “Chemical compounds” (priority 2002, published 2006).

Counter-ions that a name gives are not always drawn.

The target of one test is T1, TIE2 kinase (Homo sapiens, UniProt Q02763).
T1 construct: made in house; host or cells: baculovirus expression (insect cells)
Kind of test: TIE2 kinase inhibition. It counts as biochemical. The source says: TIE-2 Enzyme Assay (TIE2-E)
The TIE-2 enzyme assay uses the LANCE method (Wallac) and GST-TIE2, baculovirus expressed recombinant constructs of the intracellular domains of human TIE2 (amino acids 762-1104, GenBank Accession #L06139) tagged by GST). The method measures the ability of the purified enzymes to catalyse the transfer of the γ-phosphate from ATP onto tyrosine residues in a biotinylated synthetic peptide, D1-15 (biotin-C6-LEARLVAYEGWVAGKKKamide). This peptide phosphorylation is detected using the following procedure: for enzyme preactivation, GST-TIE2 is incubated for 30 mins at room temperature with 2 mM ATP, 5 mM MgCl2 and 12.5 mM DTT in 22.5 MM HEPES buffer (pH7.4). Preactivated GST-TIE2 is incubated for 30mins at room temperature in 96 well plates with 1 uM D1-15 peptide, 80 uM ATP, 10 mM MgCl2, 0.1 mg/ml BSA and the test compound (diluted from a 10 mM stock in DMSO, final DMSO concentration is 2.4%) in 1 mM HEPES (pH7.4). The reaction is stopped by the addition of EDTA (final concentration 45 mM). Streptavidin linked-APC (allophycocyanin, Molecular Probe) and Europium-labeled anti-phosphorylated tyrosine antibody (Wallac) are then added at the final concentration of 17 ug/well and 2.1 ug/well, respectively. The APC signal is measured using an ARVO multilabel counter. (Wallac Berthold Japan). The percent inhibition of activity is calculated relative to blank control wells. The concentration of test compound that inhibits 50% of activity (IC50) is interpolated using nonlinear regression (Levernberg-Marquardt) and the equation, y=Vmax (1−x/(K+x))+Y2, where “K” is equal to the IC50. The IC50 values are converted to pIC50 values, i.e., -log IC50 in Molar concentration.
TIE-2 Enzyme Assay (TIE2-E2
The TIE-2 enzyme assay uses the LANCE method (Wallac) and GST-TIE2, baculovirus-expressed recombinant constructs of the intracellular domains of human TIE2 (amino acids 762-1104, GenBank Accession #L06139) tagged by GST). The method measures the ability of the purified enzymes to catalyse the transfer of the γ-phosphate from ATP onto tyrosine residues in a biotinylated synthetic peptide, D1-15 (biotin-C6-LEARLVAYEGWVAGKKKamide). This peptide phosphorylation is detected using the following procedure: for enzyme preactivation, GST-TIE2 is incubated for 2 hours at room temperature with 80 μM ATP, 10 mM MgCl2, 0.1 mg/ml BSA, 0.01% Tween 20 and 1 mM DTT in 100 mM HEPES buffer (pH7.4). […] The APC signal is measured using an Wallac Multilabel 1420 counter. […] The percent inhibition of activity is calculated relative to blank control wells. […]
Tie2 Fluorescence Polarization Kinase Activity Assay: (TIE2-FP) […]

The target of the next test is Raf kinase. In words: Raf kinase inhibition. Format: biochemical.

T1 sequence (Q02763 762-1104): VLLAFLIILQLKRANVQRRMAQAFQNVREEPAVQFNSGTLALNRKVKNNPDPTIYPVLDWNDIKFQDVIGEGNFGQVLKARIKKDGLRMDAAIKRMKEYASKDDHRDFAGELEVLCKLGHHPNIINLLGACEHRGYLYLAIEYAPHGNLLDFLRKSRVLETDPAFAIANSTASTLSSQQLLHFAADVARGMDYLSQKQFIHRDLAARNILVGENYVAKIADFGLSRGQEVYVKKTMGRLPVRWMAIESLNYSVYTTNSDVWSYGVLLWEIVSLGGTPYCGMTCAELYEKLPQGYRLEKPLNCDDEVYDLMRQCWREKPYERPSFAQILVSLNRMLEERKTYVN

Turning to `CNC(=O)c1cc(Oc2ccc3c(c2)CCN3C(=O)Nc2cccc(C(F)(F)F)c2)ccn1` [Example 3, 5-(2-Methylcarbamoyl-pyridin-4-yloxy)-2,3-dihydro-indole-1-carboxylic acid(3′-trifluoromethyl-phenyl)-amide], the IC50 against TIE2 kinase was < 250 nM.
Take `CNC(=O)c1cc(Oc2ccc3c(c2)CCN3C(=O)Nc2ccc(F)c(C(F)(F)F)c2)ccn1` [Example 4, 5-(2-Methylcarbamoyl-pyridin-4-yloxy)-2,3-dihydro-indole-1-carboxylic acid(4′-fluoro-3′-trifluoromethyl-phenyl)-amide]: the IC50 against TIE2 kinase is < 250 nM.
In the case of `CNC(=O)c1cc(Oc2ccc3c(c2)CCN3C(=O)Nc2cc(C(F)(F)F)cc(C(F)(F)F)c2)ccn1` [Example 6, 5-(2-Methylcarbamoyl-pyridin-4-yloxy)-2,3-dihydro-indole-1-carboxylic acid(bis-3′,5′-trifluoromethylphenyl)-amide], on TIE2 kinase, the 50% inhibitory concentration (IC50) was < 250 nM.
Take `CNC(=O)c1cc(Oc2ccc3c(c2)CCN3C(=O)Nc2cc(C(C)(C)C)on2)ccn1` [Example 7, 5-(2-Methylcarbamoyl-pyridin-4-yloxy)-2,3-dihydro-indole-1-carboxylic acid(5-tert-butyl-isoxazol-3-yl)-amide trifluoroacetate]: on TIE2 kinase, the IC50 was < 250 nM.
Turning to `CNC(=O)c1cc(Oc2ccc3c(c2)CCN3C(=O)Nc2ccc(Cl)c(C(F)(F)F)c2)ccn1` [Example 8, 5-(2-Methylcarbamoyl-pyridin-4-yloxy)-2,3-dihydro-indole-1-carboxylic acid(4′-chloro-3′-trifluoromethyl-phenyl)-amide], the IC50 against Raf kinase was < 250 nM.

As usually defined, the IC50 is the concentration at which inhibition is half-maximal. A lower IC50 goes with greater potency.
